Results published in PMC6100543, “Parthenolide Inhibits STAT3 Signaling by Covalently Targeting Janus Kinases” (Molecules : A Journal of Synthetic Chemistry and Natural …, 2018).
pIC50: −log10 of the molar value.

Molecular target: T1, JAK2 (Mus musculus, UniProt Q62120)
T1 construct: JAK2-FLAG, overexpressed in HEK293 and immunoprecipitated
Assay: in vitro kinase assay with immunoprecipitated JAK2-FLAG; LC-MS/MS of PN-modified tryptic peptides
Assay type: biochemical

T1 sequence (Q62120 whole entry): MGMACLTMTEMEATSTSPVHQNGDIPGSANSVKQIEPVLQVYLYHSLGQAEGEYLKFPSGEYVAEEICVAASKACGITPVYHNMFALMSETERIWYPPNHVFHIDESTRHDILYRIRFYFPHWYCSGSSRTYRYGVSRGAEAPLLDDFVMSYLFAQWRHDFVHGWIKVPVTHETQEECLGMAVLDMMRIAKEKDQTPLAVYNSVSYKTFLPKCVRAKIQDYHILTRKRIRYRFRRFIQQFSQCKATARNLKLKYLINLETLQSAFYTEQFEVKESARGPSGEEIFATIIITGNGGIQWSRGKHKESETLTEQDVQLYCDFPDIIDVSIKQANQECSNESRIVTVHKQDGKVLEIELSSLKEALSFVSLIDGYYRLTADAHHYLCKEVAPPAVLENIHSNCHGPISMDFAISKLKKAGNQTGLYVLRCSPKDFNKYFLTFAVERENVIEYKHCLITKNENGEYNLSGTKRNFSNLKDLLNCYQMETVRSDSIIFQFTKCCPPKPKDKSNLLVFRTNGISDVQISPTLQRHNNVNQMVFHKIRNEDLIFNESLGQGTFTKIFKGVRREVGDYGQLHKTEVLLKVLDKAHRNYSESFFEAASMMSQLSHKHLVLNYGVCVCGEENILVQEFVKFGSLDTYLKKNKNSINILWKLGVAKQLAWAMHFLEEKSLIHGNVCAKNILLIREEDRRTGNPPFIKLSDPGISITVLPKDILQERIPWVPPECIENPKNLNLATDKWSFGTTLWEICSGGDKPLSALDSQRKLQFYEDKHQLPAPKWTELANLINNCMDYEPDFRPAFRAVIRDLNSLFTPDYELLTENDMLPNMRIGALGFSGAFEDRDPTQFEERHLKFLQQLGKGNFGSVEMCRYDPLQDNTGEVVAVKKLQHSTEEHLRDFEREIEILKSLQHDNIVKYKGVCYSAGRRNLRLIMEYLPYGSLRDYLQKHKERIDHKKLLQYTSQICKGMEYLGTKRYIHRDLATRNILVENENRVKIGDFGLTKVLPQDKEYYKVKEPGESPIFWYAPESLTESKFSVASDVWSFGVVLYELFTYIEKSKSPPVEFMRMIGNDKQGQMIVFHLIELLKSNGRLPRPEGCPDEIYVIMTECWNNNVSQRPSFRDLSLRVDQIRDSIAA

## C=C1C(=O)O[C@H]2[C@H]1CC/C(C)=C/CC[C@@]1(C)O[C@@H]21 [PN, parthenolide]
  pIC50: 5.40
